Numbers after ± are expanded uncertainties.
Conditions: Liquid, Ebulliometric method (Recirculating still)

## O=Cc1ccco1 [2-furaldehyde]
435.15 K
  vapor or sublimation pressure: 101.3 ± 0.71 kPa

## CC(=O)N(C)C [N,N-dimethylethanamide]
439.05 K
  vapor or sublimation pressure: 101.3 ± 0.71 kPa

## CC(C)N(C)C [N,N-dimethylisopropylamine]
339.13 K
  vapor or sublimation pressure: 101.3 ± 0.71 kPa

## CC(C)=O [acetone]
329.56 K
  vapor or sublimation pressure: 101.3 ± 0.66 kPa

— the NIST ThermoML archive (doi:10.1016/j.jct.2018.03.019)
